According to US6080772A, “Thiazole compounds and methods of modulating signal transduction” (Sugen, Inc., priority 1997, dated 2000):
Read-outs that look alike come from different tables or passages of the source.

Tested on: insulin receptor (IR)
Assay: Phosphotyrosine enzyme linked immunosorbent assay: pTyr on insulin receptor in NIH3T3 cells over-expressing human IR (H25 cells)
Conditions: for EC50: read-out: ACTIVITY EC50; for increase in PTYR: at 100 μM

| Structure (SMILES) | EC50 (Table III, […]) [µM] | also measured |
| --- | --- | --- |
| O=[N+]([O-])c1cnc(Nc2nc(-c3ccc(Cl)cc3)n[nH]2)s1 [Compound 10, 3-(4-chlorophenyl)-5-[(5-nitrothiazol-2-yl)amino]-1,2,4-triazole] |  | dose dependence of the increase in the pTyr level (from 15.6 μM to 250 μM): dependent on the dose |
| O=[N+]([O-])c1cnc(Sc2nccn2Cc2ccccc2)s1 [Compound 16, 1-Benzyl-2-[(5-nitrothiazol-2-yl)mercapto]imidazole] | 27 |  |
| Cc1ccc(S(=O)(=O)n2c(Sc3ncc([N+](=O)[O-])s3)nc3ccccc32)cc1 [Compound 17, 1-Tosyl-2-[(5-nitrothiazol-2-yl)mercapto]benzimidazole] | > 25 |  |
| CCNC(=O)n1c(Sc2ncc([N+](=O)[O-])s2)nc2cc([N+](=O)[O-])ccc21 [Compound 18, 1-Ethylaminocarbonyl-5-nitro-2-[(5-nitrothiazol-2-yl)mercapto]benzimidazole] |  | EC50: 16 µM |
| Cc1nc2nc(Sc3ncc([N+](=O)[O-])s3)[nH]c2cc1Br [Compound 19] | > 100 |  |
| O=[N+]([O-])c1cnc(Sc2nc3ncccc3[nH]2)s1 [Compound 20] | 15 |  |
| O=C(CN(c1ccccc1)c1nnc(Sc2ncc([N+](=O)[O-])s2)s1)Nc1cccc(C(F)(F)F)c1 [Compound 21, 2-[N-Phenyl-N-[3-(trifluoromethyl)phenylaminocarbonylmethyl]amino]-5-[(5-nitrothiazol-2-yl)mercapto]-1,3,4-thiadiazole] | > 50 |  |
| O=CNc1nnc(Sc2ncc([N+](=O)[O-])s2)s1 [Compound 22, 2-Formamido-5-[(5-nitrothiazol-2-yl)mercapto]-1,3,4-thiadiazole] | 29 |  |
| CCCCSc1nnc(Sc2ncc([N+](=O)[O-])s2)s1 [Compound 23, 2-n-Butylmercapto-5-[(5-nitrothiazol-2-yl)mercapto]-1,3,4-thiadiazole] | > 100 |  |
| O=C(CSc1nnc(Sc2ncc([N+](=O)[O-])s2)s1)Oc1ccccc1 [Compound 24, 2-[(5-Nitrothiazol-2-yl)mercapto]-5-[(phenoxycarbonyl)methylmercapto]-1,3,4-thiadiazole] | > 100 |  |
| CCOC(=O)CSc1nnc(Sc2nnc(Sc3ncc([N+](=O)[O-])s3)s2)s1 [Compound 25, 2-[(Ethoxycarbonyl)methylmercapto]-5-[[2-[(5-nitrothiazol-2-yl)mercapto]-1,3,4-thiadiazol-5-yl]mercapto]-1,3,4-thiadiazole] | 48 |  |
| O=[N+]([O-])c1cnc(Sc2nnc(Sc3nnc(SCCCl)s3)s2)s1 [Compound 26, 2-(2-Chloroethylmercapto)-5-[[2-[(5-nitrothiazol-2-yl)mercapto]-1,3,4-thiadiazol-5-yl]mercapto]-1,3,4-thiadiazole] |  | EC50: 46 µM |
| O=[N+]([O-])c1cnc(Sc2nnc(Sc3nnc(Sc4cc(O)ccc4O)s3)s2)s1 [Compound 27, 2-(2,5-Dihydroxyphenylmercapto)-5-[[2-[(5-nitrothiazol-2-yl)mercapto]-1,3,4-thiadiazol-5-yl]mercapto]-1,3,4-thiadiazole] | 96 |  |
| CCSc1nnc(Sc2ncc([N+](=O)[O-])s2)s1 [Compound 28, 2-Ethylmercapto-5-[(5-nitrothiazol-2-yl)mercapto]-1,3,4-thiadiazole] | 35 |  |
| Nc1ccc(-n2nnnc2Sc2ncc([N+](=O)[O-])s2)cc1 [Compound 29, 1-(4-Aminophenyl)-5-[(5-nitrothiazol-2-yl)mercapto]tetrazole] | > 100 |  |
| C=CCn1nnnc1Sc1ncc([N+](=O)[O-])s1 [Compound 30, 1-Allyl-5-[(5-nitrothiazol-2-yl)mercapto]tetrazole] | 32 |  |
| CC(=O)Nc1ccc(-n2nnnc2Sc2ncc([N+](=O)[O-])s2)cc1 [Compound 31, 1-(4-Acetamidophenyl)-5-[(5-nitrothiazol-2-yl)mercapto]tetrazole] | > 100 | increase (PTYR) (Table III, at 50 μM): 49% |
| Nc1ccc(-n2nnnc2Sc2ncc([N+](=O)[O-])s2)cc1 [Compound 32, 1-(4-Aminophenyl)-5-[(5-nitrothiazol-2-yl)mercapto]tetrazole] |  | increase in PTYR (Table III): 40% |
| NS(=O)(=O)c1ccc(-n2nnnc2Sc2ncc([N+](=O)[O-])s2)cc1 [Compound 33, 1-(4-Aminosulfonylphenyl)-5-[(5-nitrothiazol-2-yl)mercapto]tetrazole] | > 100 |  |
| CCn1nnnc1Sc1ncc([N+](=O)[O-])s1 [Compound 34, 1-Ethyl-5-[(5-nitrothiazol-2-yl)mercapto]tetrazole] | 33 |  |
| O=c1[nH]c(Sc2ncc([N+](=O)[O-])s2)nc2ccccc12 [Compound 35, 2-[(5-Nitrothiazol-2-yl)mercapto]-4-quinazolone] | > 25 |  |
| Cn1c(=O)n(C)c2nc(Sc3ncc([N+](=O)[O-])s3)ncc21 [Compound 36, 1,3-Dimethyl-5-[(5-nitrothiazol-2-yl)mercapto]imidazo[4,5-d]pyrimid-2-one] | > 100 |  |
| O=[N+]([O-])c1cnc(Sc2nc(O)c3nc(O)[nH]c3n2)s1 [Compound 37] | > 100 |  |
| Nc1nnc(Sc2ncc([N+](=O)[O-])s2)s1 [Compound 38, 2-Amino-5-[(5-nitrothiazol-2-yl)mercapto]-1,3,4-thiadiazole] | 15.6 |  |

| Structure (SMILES) | EC50 (Table III, […]) [µM] | also measured |
| --- | --- | --- |
| O=[N+]([O-])c1cnc(Sc2nc3c([nH]2)CC(Cl)C(Cl)C3)s1 (stereo not shown) [Compound 39, 5,6-Dichloro-2-[(5-nitrothiazol-2-yl)mercapto]cyclohexoimidazole] | 17.5 |  |
| O=[N+]([O-])c1cnc(Sc2nc3cc(C(F)(F)F)cc(Br)c3[nH]2)s1 [Compound 40, 4-Bromo-2-[(5-nitrothiazol-2-yl)mercapto]-6-(trifluoromethyl)benzimidazole] | 8.6 |  |
| O=[N+]([O-])c1cnc(Sc2nc3cc(C(F)(F)F)cc(Cl)c3[nH]2)s1 [Compound 41, 4-Chloro-2-[(5-nitrothiazol-2-yl)mercapto]-6-(trifluoromethyl)benzimidazole] | 10 |  |
| COC(=O)c1cnc(Sc2ncc([N+](=O)[O-])s2)n1C [Compound 42, 4-Methoxycarbonyl-3-methyl-2-[(5-nitrothiazol-2-yl)mercapto]imidazole] | 14 |  |
| CCOC(=O)c1c[nH]c(Sc2ncc([N+](=O)[O-])s2)n1 [Compound 43, 4-Ethoxycarbonyl-2-[(5-nitrothiazol-2-yl)mercapto]imidazole] | 8.5 |  |
| CCOC(=O)c1cnc(Sc2ncc([N+](=O)[O-])s2)n1C [Compound 44, 4-Ethoxycarbonyl-3-methyl-2-[(5-nitrothiazol-2-yl)mercapto]imidazole] | 7.6 |  |
| COc1ccc2nc(Sc3ncc([N+](=O)[O-])s3)[nH]c2c1 [Compound 45, 5-Methoxy-2-[(5-nitrothiazol-2-yl)mercapto]benzimidazole] |  | increase in PTYR (Table III): 46% |
| CCOc1ccc(OCC)c2[nH]c(Sc3ncc([N+](=O)[O-])s3)nc12 [Compound 46, 4,7-Diethoxy-2-[(5-nitrothiazol-2-yl)mercapto]benzimidazole] | 9.7 |  |
| CCOC(=O)c1nc(Sc2ncc([N+](=O)[O-])s2)n(C2CCCCC2)c1C(=O)OCC [Compound 47, 1-Cyclohexyl-4,5-di(ethoxycarbonyl)-2-[(5-nitrothiazol-2-yl)mercapto]imidazole] | 15.7 |  |
| CCOC(=O)c1nc(Sc2ncc([N+](=O)[O-])s2)[nH]c1C(=O)OCC [Compound 48, 4,5-Di(ethoxycarbonyl)-2-[(5-nitrothiazol-2-yl)mercapto]imidazole] | > 100 |  |
| CCCn1c(Sc2ncc([N+](=O)[O-])s2)nc2c(O)nnc(O)c21 [Compound 49] | 4 |  |
| Cc1ccc2nc(Sc3ncc([N+](=O)[O-])s3)[nH]c2c1 [Compound 50, 5-Methyl-2-[(5-nitrothiazol-2-yl)mercapto]benzimidazole] | > 100 |  |
| O=[N+]([O-])c1cnc(Sc2nc3ccc(S(=O)(=O)O)cc3[nH]2)s1 [Compound 51, 2-[(5-nitrothiazol-2-yl)mercapto]-5-sulfobenzimidazole] | 10.3 |  |
| CC(C)n1c(Sc2ncc([N+](=O)[O-])s2)nc2cc(Cl)ccc21 [Compound 52, 5-Chloro-1-isopropyl-2-[(5-nitrothiazol-2-yl)mercapto]benzimidazole] | > 50 |  |
| Cn1c(Sc2ncc([N+](=O)[O-])s2)nc2cc(C(F)(F)F)cnc21 [Compound 53] | > 25 |  |
| O=[N+]([O-])c1cnc(Sc2nnnn2-c2ccc(F)cc2)s1 [Compound 54, 1-(4-Fuorophenyl)-5-[(5-nitrothiazol-2-yl)mercapto]tetrazole] | 42 |  |
| O=[N+]([O-])c1cnc(Sc2nnnn2-c2ccc(O)cc2)s1 [Compound 55, 1-(4-Hydroxyphenyl)-5-[(5-nitrothiazol-2-yl)mercapto]tetrazole] | 41 |  |
| Cn1nnnc1Sc1ncc([N+](=O)[O-])s1 [Compound 56, 1-Methyl-5-[(5-nitrothiazol-2-yl)mercapto]tetrazole] | 27 |  |
| CCn1nnnc1Sc1ncc([N+](=O)[O-])s1 [Compound 57, 1-Ethyl-5-[(5-nitrothiazol-2-yl)mercapto]tetrazole] | 81 |  |
| O=C(O)Cn1nnnc1Sc1ncc([N+](=O)[O-])s1 [Compound 58, 1-Carboxymethyl-5-[(5-nitrothiazol-2-yl)mercapto]tetrazole] | 40 |  |
| Nc1nnc(Sc2ncc([N+](=O)[O-])s2)s1 [Compound 59, 2-Amino-5-[(5-nitrothiazol-2-yl)mercapto]-1,3,4-thiadiazole] | > 100 |  |
| Cc1nnc(Sc2ncc([N+](=O)[O-])s2)s1 [Compound 60, 2-Methyl-5-[(5-nitrothiazol-2-yl)mercapto]-1,3,4-thiadiazole] | > 100 |  |
| CSc1nnc(Sc2ncc([N+](=O)[O-])s2)s1 [Compound 61, 2-Methylmercapto-5-[(5-nitrothiazol-2-yl)mercapto]-1,3,4-thiadiazole] | 32 |  |
| O=[N+]([O-])c1cnc(Sc2nnc(SCC3CC3)s2)s1 [Compound 62, 2-Cyclopropylmethylmercapto-5-[(5-nitrothiazol-2-yl)mercapto]-1,3,4-thiadiazole] | > 100 |  |
